Assay results taken from PMC8318206 (ACS catalysis, 2020).
pKd: −log10 of the molar value. “And” between values parts separate entries of the source, which are not always exact repeats. Equal entries are not always repeated. “Also recorded” adds a separate entry of the source. Where two headings read alike, the source gives them in different places.

Columns and labels:
Solubility in H2O = type: physicochemical; conditions: water
P450cam [1] = target: T1, P450cam (Pseudomonas putida, UniProt P00183); conditions: reported previously; cited from earlier work
P450cam [2] = target: T1, P450cam; experiment: Steady-state substrate binding titrations; conditions: for Reversal of the high-spin spectral change at high ligand concentration: camphor up to 2 mM
P450cam [3] = target: T1, P450cam; experiment: Catalytic activity: NADH oxidation with Pdx and PdR; type: biochemical; conditions: for Rate/Kd (specificity constant): NADH oxidation rate divided by Kd
P450cam [4] = target: T1, P450cam; experiment: Stopped-flow ligand binding kinetics; conditions: for Binding rate measurable by stopped-flow (ΔA390-A420): dead time 2 ms; for Dominant binding mechanism: from dependence of eigenvalues on ligand and P450cam concentration
P450cam [5] = target: T1, P450cam; conditions: cited from earlier work
P450cam [6] = target: T1, P450cam; experiment: Estimation of koff for the P450cam·camphor complex by metyrapone trapping; type: binding
P450cam·Pdx complex = conditions: ref Hollingsworth et al., 46; cited from earlier work
P450tcu = conditions: 5-exo hydroxylation; cited from earlier work
[7] = 20 mM potassium MOPS (pH 7.4), 200 mM KCl
[8] = eigenvalues vs camphor concentration
[9] = fit to λ = kf + kr·S/(Kd + S), induced fit model

Compound | solubility (Solubility in H2O) | pKd (P450cam [1]) | pKd (P450cam [2]) | Reversal of the high-spin spectral change at high ligand concentration (P450cam [2]; [7]) | % relative to camphor (Rate/Kd) (P450cam [3]) | Rate/Kd (specificity constant) (P450cam [3]) | Binding rate measurable by stopped-flow (ΔA390-A420) (P450cam [4]) | Specificity constant (rate/Kd) (P450cam [5]; reported by others, ref 54) | Dominant binding mechanism (P450cam [4]) | NADH coupling (P450cam [5]) | further results
CC1(C)CC(=O)CC(C)(C)C1 [3,3,5,5-tetramethylcyclohexanone] | ≥ 2000 µM | 5.46 | 5.30 | did reverse the spin state change at higher concentrations | 0.6% | 40000 M⁻¹ s⁻¹ | changes could not be observed | – | – | – | –
O=C1C2CC3CC(C2)CC1C3 [2-adamantanone] | ≥ 2000 µM | 4.47 and 4.35 | 5.57 | – | 19% | 1.3e+06 M⁻¹ s⁻¹ | – | 240000 M⁻¹ s⁻¹ | conformational selection | – | Oxidation rate (P450cam [5]; ref White et al., 54): ~ 1 s^−1; Oxidation rate (P450cam [5]; ref White et al., 54, listed as 2-Adamantone): 1 s⁻¹; Exponential of binding (P450cam [4]; 2 μM 2-adamantanone and 1 μM P450cam): 72 s⁻¹; Exponential of binding (P450cam [4]; 2 μM 2-adamantanone and 10 μM P450cam): 82 s⁻¹; kobs of binding (P450cam [4]; 2 μM P450cam and 4 μM 2-adamantanone): 78 ± 2 s⁻¹
CC(C)(C(=O)c1cccnc1)c1cccnc1 [metyrapone] | – | – | – | – | – | – | – | – | – | – | First-order rate of binding to ligand-free P450cam (k2) (P450cam [6]; 2 mM metyrapone (final)): 18.9 s⁻¹
O=C1CC2CC[C@H]1C2 [norcamphor] | ≥ 50000 µM | 3.46 | 3.60 | – | – | 70000 M⁻¹ s⁻¹ | changes could not be observed | – | – | 15% | –
(+)-α-pinene | – | 5.96 | – | – | – | – | – | – | conformational selection | 23% | pKd (P450cam [2]; 20 mM potassium MOPS (pH 7.4), 200 mM KCl, absence of Pdx, 23 °C): 5.47; Specificity constant (rate/Kd) (P450cam [5]; based on NADH oxidation): 1.3e+06 M⁻¹ s⁻¹; Specificity constant (rate/Kd) (P450cam [5]; based on product formation): 300000 M⁻¹ s⁻¹; Oxidation rate (P450cam [5]; ref Bell et al., 37): 0.3 s⁻¹; kobs of binding (P450cam [4]; 2 μM P450cam and 30 μM (+)-α-pinene): 81 ± 3 s⁻¹
d-(+)-camphor | – | – | – | no reversal of the high-spin spectral change was observed; also recorded: did not show any evidence for reversal | 100% | 7e+06 M⁻¹ s⁻¹ | – | 340000 M⁻¹ s⁻¹ | induced fit mechanism | – | Increase of the Kd of a P450cam·Pdx complex in the presence of camphor (P450cam·Pdx complex): 2 fold; kcat (P450cam [5]; Km based on O2 as co-substrate): 55 to 66 s⁻¹; Rate of 5-exo hydroxylation (P450cam [5]): > 10 s⁻¹; Specificity constant (rate/Kd) (P450cam [5]; reported by others, ref 57): 1.6e+07 M⁻¹ s⁻¹; Rate on the basis of NADH oxidation (P450cam [5]; typically reported): 7 to 14 s⁻¹; Eigenvalue λ of binding (P450cam [4]; 6 μM P450cam mixed with 2 μM camphor): 69 ± 2 s⁻¹; Intercept of linear regression of eigenvalues (koff, 2-state system) (P450cam [4]; [8]): 35 ± 4 s⁻¹; Slope of linear regression of eigenvalues (second-order kon, 2-state system) (P450cam [4]; [8]): 2.4 (± 0.3) × 10^6 M^−1 s^−1 and 2.4 (± 0.3) M^−1 s^−1; kf (kforward), forward rate constant following camphor binding (P450cam [4]; [9]): 112 s⁻¹ and 112 ± 49 s⁻¹; kr (kreverse), reverse rate constant (P450cam [4]; [9]): 28 s⁻¹ and 28 ± 7 s⁻¹; kcat (P450tcu): ~ 10 s^−1; koff (k-1) of the P450cam·camphor complex (P450cam [6]; 2 μM P450cam, 10 μM camphor mixed with 2 mM metyrapone, KinTek Explorer fit): 15 s⁻¹; kon in the minimal kinetic model (P450cam [6]; fit with koff = 15 s^−1 and Kd = […] μM): 1.5e+07 M⁻¹ s⁻¹
